In patent US11034650B2, “Compounds useful for treating a Mannheimia haemolytica or Histophilus somni infection” (Intervet Inc., priority 2016, dated 2021):
Values after ≈ are worked out from the molar mass of the structure shown.

What was measured:
Type in all cases: cell-based
[1] = tested on: Mannheimia haemolytica MH 6357 (M7/2, reference strain, cattle infection strain); assay: MIC, broth-microdilution (CLSI VET01-A4), strain MH 6357; details: Mannheimia haemolytica strain MH 6357, broth-microdilution; unit assumed
Summary of the method: (§1)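 Doubling dilution series in trays; visual read, MIC = lowest conc. with no visible turbidity; interpretation per CLSI VET01-S3.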

[2] = tested on: Mannheimia haemolytica MH 6374 (ATCC 33396, reference strain); assay: MIC, broth-microdilution (CLSI VET01-A4), strain MH 6374; details: Mannheimia haemolytica strain MH 6374, broth-microdilution; unit assumed
Summary of the method: as §1

[3] = tested on: Mannheimia haemolytica MH 10720 (154, BRD field isolate); assay: MIC, broth-microdilution (CLSI VET01-A4), strain MH 10720; details: Mannheimia haemolytica strain MH 10720, broth-microdilution; unit assumed
Summary of the method: as §1

[4] = tested on: Mannheimia haemolytica MH 12587 (1071, BRD field isolate, macrolide-resistance: erm+, E+); assay: MIC, broth-microdilution (CLSI VET01-A4), strain MH 12587; details: Mannheimia haemolytica strain MH 12587, broth-microdilution; unit assumed
Summary of the method: as §1

[5] = tested on: Mannheimia haemolytica MH 13065 (XB0446-6003.9, BRD field isolate); assay: MIC, broth-microdilution (CLSI VET01-A4), strain MH 13065; details: Mannheimia haemolytica strain MH 13065, broth-microdilution; unit assumed
Summary of the method: as §1

[6] = tested on: Mannheimia haemolytica MH 13093 (XB0472-6014.1, BRD field isolate); assay: MIC, broth-microdilution (CLSI VET01-A4), strain MH 13093; details: Mannheimia haemolytica strain MH 13093, broth-microdilution; unit assumed
Summary of the method: as §1

[7] = tested on: Pasteurella multocida PM 6267 (P 2225 (L386), reference strain, mouse infection strain); assay: MIC, broth-microdilution (CLSI VET01-A4), strain PM 6267; details: Pasteurella multocida strain PM 6267, broth-microdilution; unit assumed
Summary of the method: as §1

[8] = tested on: Pasteurella multocida PM 6391 (ATCC 43137, reference strain); assay: MIC, broth-microdilution (CLSI VET01-A4), strain PM 6391; details: Pasteurella multocida strain PM 6391, broth-microdilution; unit assumed
Summary of the method: as §1

[9] = tested on: Pasteurella multocida PM 10775 (080130003051, BRD field isolate); assay: MIC, broth-microdilution (CLSI VET01-A4), strain PM 10775; details: Pasteurella multocida strain PM 10775, broth-microdilution; unit assumed
Summary of the method: as §1

[10] = tested on: Pasteurella multocida PM 12080 (IV102277-0093, BRD field isolate); assay: MIC, broth-microdilution (CLSI VET01-A4), strain PM 12080; details: Pasteurella multocida strain PM 12080, broth-microdilution; unit assumed
Summary of the method: as §1

SMILES | MIC PM 6267 [7] [µg/mL] | MIC PM 6391 [8] [µg/mL] | MIC PM 10775 [9] [µg/mL] | MIC PM 12080 [10] [µg/mL] | MIC MH 6357 [1] [µg/mL] | MIC MH 6374 [2] [µg/mL] | MIC MH 10720 [3] [µg/mL] | MIC MH 12587 [4] [µg/mL] | MIC MH 13065 [5] [µg/mL] | MIC MH 13093 [6] [µg/mL]
CC(C)[C@H](NC(=O)c1ccc(C#Cc2ccc(CNC3CCCCC3)cc2)cc1)C(=O)NO [Compound 208] | 0.2 (≈ 0.447 µM) | 0.4 (≈ 0.894 µM) | ≤ 0.1 | 0.2 (≈ 0.447 µM) | 12.5 (≈ 27.9 µM) | 12.5 (≈ 27.9 µM) | 3.1 (≈ 6.93 µM) | 25 (≈ 55.9 µM) | 12.5 (≈ 27.9 µM) | 12.5 (≈ 27.9 µM)
CC[C@H](C)[C@H](NC(=O)c1ccc(C#Cc2ccc(CNC(C)COC)cc2)cc1)C(=O)NO (stereo partly drawn) [Compound 185] | ≤ 0.1 | 0.8 (≈ 1.77 µM) | ≤ 0.1 | 0.4 (≈ 0.886 µM) | 3.1 (≈ 6.86 µM) | 6.3 (≈ 14 µM) | 0.8 (≈ 1.77 µM) | 6.3 (≈ 14 µM) | 3.1 (≈ 6.86 µM) | 6.3 (≈ 14 µM)
CC(C)([C@H](NC(=O)c1ccc(C#Cc2ccc(CNCc3cccnc3)s2)cc1)C(=O)NO)S(C)(=O)=O [C.319] | 0.2 (≈ 0.37 µM) | ≤ 0.1 | ≤ 0.1 | ≤ 0.1 | 0.2 (≈ 0.37 µM) | 0.2 (≈ 0.37 µM) | ≤ 0.1 | 0.8 (≈ 1.48 µM) | 0.4 (≈ 0.74 µM) | 0.4 (≈ 0.74 µM)
CNCc1ccc(C#Cc2ccc(C(=O)N[C@@H](CO)C(=O)NO)cc2)cc1 [Compound 150] | 6.3 (≈ 17.1 µM) | 25 (≈ 68 µM) | ≤ 0.1 | ≤ 0.1 | 6.3 (≈ 17.1 µM) | 25 (≈ 68 µM) | 3.1 (≈ 8.44 µM) | 25 (≈ 68 µM) | 12.5 (≈ 34 µM) | 25 (≈ 68 µM)
CC(C)([C@H](NC(=O)c1ccc(C#Cc2ccc(CNCc3ccnc(Cl)c3)cc2)cc1)C(=O)NO)S(C)(=O)=O [Compound 268] | ≤ 0.1 | ≤ 0.1 | ≤ 0.1 | ≤ 0.1 | 0.4 (≈ 0.703 µM) | 0.4 (≈ 0.703 µM) | ≤ 0.1 | 0.8 (≈ 1.41 µM) | 0.2 (≈ 0.351 µM) | 0.4 (≈ 0.703 µM)
COCC(C)NCc1ccc(C#Cc2ccc(C(=O)N[C@@H](CO)C(=O)NO)cc2)cc1 (stereo partly drawn) [Compound 164] | 0.4 (≈ 0.94 µM) | 1.6 (≈ 3.76 µM) | ≤ 0.1 | 1.6 (≈ 3.76 µM) | 6.3 (≈ 14.8 µM) | 12.5 (≈ 29.4 µM) | 1.6 (≈ 3.76 µM) | 25 (≈ 58.8 µM) | 12.5 (≈ 29.4 µM) | 25 (≈ 58.8 µM)
CCNCc1ccc(C#Cc2ccc(C(=O)N[C@@H](CO)C(=O)NO)cc2)cc1 [Compound 151] | 3.1 (≈ 8.13 µM) | 12.5 (≈ 32.8 µM) | ≤ 0.1 | 6.3 (≈ 16.5 µM) | 6.3 (≈ 16.5 µM) | 25 (≈ 65.5 µM) | 3.1 (≈ 8.13 µM) | 25 (≈ 65.5 µM) | 12.5 (≈ 32.8 µM) | 25 (≈ 65.5 µM)
CSC(C)(C)[C@H](NC(=O)c1ccc(C#Cc2ccc(CNCc3ccc(C)cc3)cc2)cc1)C(=O)NO [Compound 252] | 0.4 (≈ 0.776 µM) | 0.8 (≈ 1.55 µM) | 0.4 (≈ 0.776 µM) | 0.8 (≈ 1.55 µM) | 1.6 (≈ 3.1 µM) | 3.1 (≈ 6.01 µM) | 0.4 (≈ 0.776 µM) | 3.1 (≈ 6.01 µM) | 1.6 (≈ 3.1 µM) | 1.6 (≈ 3.1 µM)

Second part, led by results:

MIC PM 6267 [7] [µg/mL] | MIC PM 6391 [8] [µg/mL] | MIC PM 10775 [9] [µg/mL] | MIC PM 12080 [10] [µg/mL] | SMILES | MIC MH 6357 [1] [µg/mL] | MIC MH 6374 [2] [µg/mL] | MIC MH 10720 [3] [µg/mL] | MIC MH 12587 [4] [µg/mL] | MIC MH 13065 [5] [µg/mL] | MIC MH 13093 [6] [µg/mL]
1.6 (≈ 3.15 µM) | 0.8 (≈ 1.58 µM) | ≤ 0.1 | 0.8 (≈ 1.58 µM) | CSC(C)(C)[C@H](NC(=O)c1ccc(C#Cc2ccc(CNCc3ncc(C)o3)nc2)cc1)C(=O)NO [Compound 347] | 0.8 (≈ 1.58 µM) | 1.6 (≈ 3.15 µM) | 0.2 (≈ 0.394 µM) | 3.1 (≈ 6.11 µM) | 1.6 (≈ 3.15 µM) | 1.6 (≈ 3.15 µM)
3.1 (≈ 6.38 µM) | ≤ 0.1 | 0.2 (≈ 0.412 µM) | ≤ 0.1 | CON=C(C)[C@H](NC(=O)c1ccc(C#Cc2ccc(CNCc3cccnc3)cc2)cc1)C(=O)NO [Compound 388] | 0.4 (≈ 0.824 µM) | 0.8 (≈ 1.65 µM) | 0.8 (≈ 1.65 µM) | 0.2 (≈ 0.412 µM) | 0.8 (≈ 1.65 µM) | 0.8 (≈ 1.65 µM)
0.2 (≈ 0.373 µM) | 0.2 (≈ 0.373 µM) | ≤ 0.1 | 0.2 (≈ 0.373 µM) | CC(C)([C@H](NC(=O)c1ccc(C#Cc2ccc(CNCc3ccncc3)nc2)cc1)C(=O)NO)S(C)(=O)=O [Compound 371] | 1.6 (≈ 2.99 µM) | 1.6 (≈ 2.99 µM) | 0.8 (≈ 1.49 µM) | 3.1 (≈ 5.79 µM) | 1.6 (≈ 2.99 µM) | 3.1 (≈ 5.79 µM)
≤ 0.1 | ≤ 0.1 | ≤ 0.1 | ≤ 0.1 | CC(C)([C@H](NC(=O)c1ccc(C#Cc2ccc(CNCc3nccs3)s2)cc1)C(=O)NO)S(C)(=O)=O [Compound 369] | 0.4 (≈ 0.732 µM) | 0.2 (≈ 0.366 µM) | ≤ 0.1 | 0.4 (≈ 0.732 µM) | 0.4 (≈ 0.732 µM) | 0.4 (≈ 0.732 µM)
1.6 (≈ 3.54 µM) | 1.6 (≈ 3.54 µM) | 0.2 (≈ 0.443 µM) | 0.8 (≈ 1.77 µM) | CSC(C)(C)[C@H](NC(=O)c1ccc(C#Cc2ccc(CNCC#N)nc2)cc1)C(=O)NO [Compound 342] | 1.6 (≈ 3.54 µM) | 3.1 (≈ 6.87 µM) | 0.4 (≈ 0.886 µM) | 6.3 (≈ 14 µM) | 3.1 (≈ 6.87 µM) | 3.1 (≈ 6.87 µM)
100 (≈ 238 µM) | 0.8 (≈ 1.91 µM) | 6.3 (≈ 15 µM) | 3.1 (≈ 7.39 µM) | CC(=O)C(NC(=O)c1ccc(C#Cc2ccc(CN3CCCC3)cc2)cc1)C(=O)NO (stereo not drawn) [Compound 403] | 25 (≈ 59.6 µM) | 12.5 (≈ 29.8 µM) | 12.5 (≈ 29.8 µM) | 6.3 (≈ 15 µM) | 25 (≈ 59.6 µM) | 25 (≈ 59.6 µM)
25 (≈ 59.6 µM) | 0.4 (≈ 0.954 µM) | 3.1 (≈ 7.39 µM) | 1.6 (≈ 3.81 µM) | CC(=O)C(NC(=O)c1ccc(C#Cc2ccc(CNC3CCC3)cc2)cc1)C(=O)NO (stereo not drawn) [Compound 404] | 12.5 (≈ 29.8 µM) | 12.5 (≈ 29.8 µM) | 6.3 (≈ 15 µM) | 3.1 (≈ 7.39 µM) | 25 (≈ 59.6 µM) | 50 (≈ 119 µM)
3.1 (≈ 6.55 µM) | 1.6 (≈ 3.38 µM) | 0.4 (≈ 0.845 µM) | 1.6 (≈ 3.38 µM) | CC(C)(O)[C@H](NC(=O)c1ccc(C#Cc2ccc(CNCc3ccccn3)nc2)cc1)C(=O)NO [Compound 331] | 1.6 (≈ 3.38 µM) | 3.1 (≈ 6.55 µM) | 0.4 (≈ 0.845 µM) | 6.3 (≈ 13.3 µM) | 3.1 (≈ 6.55 µM) | 6.3 (≈ 13.3 µM)
0.8 (≈ 1.58 µM) | 0.4 (≈ 0.788 µM) | ≤ 0.1 | ≤ 0.1 | COc1ccc(CNCc2ccc(C#Cc3ccc(C(=O)N[C@H](C(=O)NO)C(C)(C)O)cc3)s2)cc1 [Compound 295] | ≤ 0.1 | 0.4 (≈ 0.788 µM) | ≤ 0.1 | 0.8 (≈ 1.58 µM) | 0.2 (≈ 0.394 µM) | 0.4 (≈ 0.788 µM)
6.3 (≈ 12.2 µM) | ≤ 0.1 | 0.8 (≈ 1.55 µM) | 0.4 (≈ 0.777 µM) | CON=C(C)[C@H](NC(=O)c1ccc(C#Cc2ccc(CNCc3ccc(OC)cc3)cc2)cc1)C(=O)NO [Compound 383] | 0.8 (≈ 1.55 µM) | 1.6 (≈ 3.11 µM) | 0.8 (≈ 1.55 µM) | 0.4 (≈ 0.777 µM) | 1.6 (≈ 3.11 µM) | 1.6 (≈ 3.11 µM)
